One may read the pIC50 as the negative decadic logarithm of the IC50, by convention in mol/L. A high value points to a small IC50.

Experimental findings from US8053447B2, “11β-hydroxysteroid dehydrogenase type 1 active compounds” (High Point Pharmaceuticals, LLC, priority 2006, dated 2011) are described below.

The assay concerns the target T1, h-11βHSD1 (Homo sapiens, UniProt P28845).
T1 construct: made in house
As to the kind of experiment: 11βHSD1 enzyme assay (scintillation proximity assay, 3H-cortisone to 3H-cortisol). Type of assay: biochemical. Particulars: extract of yeast transformed with h-11βHSD1; 120 nM 3H-cortisone, 4 mM β-NADPH, 60 min at 30° C., SPA. As for the experimental part: Pharmacological Methods 11βHSD1 Enzyme Assay Materials
^3H-cortisone and anti-rabbit Ig coated scintillation proximity assay (SPA) beads were purchased from Amersham Pharmacia Biotech, β-NADPH was from Sigma and rabbit anti-cortisol antibodies were from Fitzgerald. An extract of yeast transformed with h-11βHSD1 (Hult et al., FEBS Lett, 441, 25 (1998)) was used as the source of enzyme. The test compounds were dissolved in DMSO (10 mM). All dilutions were performed in a buffer containing 50 mM TRIS-HCl (Sigma Chemical Co), 4 mM EDTA (Sigma Chemical Co), 0.1% BSA (Sigma Chemical Co), 0.01% Tween-20 (Sigma Chemical Co) and 0.005% bacitracin (Novo Nordisk A/S), pH=7.4. Optiplate 96 wells plates were supplied by Packard. The amount of ^3H-cortisol bound to the SPA beads was measured on TopCount NXT, Packard.
h-11βHSD1, 120 nM ^3H-cortisone, 4 mM β-NADPH, antibody (1:200), serial dilutions of test compound and SPA particles (2 mg/well) were added to the wells. The reaction was initiated by mixing the different components and was allowed to proceed under shaking for 60 min at 30° C. The reaction was stopped be the addition of 10 fold excess of a stopping buffer containing 500 μM carbenoxolone and 1 μM cortisone. Data was analysed using GraphPad Prism software.

Each structure is given as a SMILES string. pIC50: −log10 of the molar value.

T1 sequence (P28845 whole entry): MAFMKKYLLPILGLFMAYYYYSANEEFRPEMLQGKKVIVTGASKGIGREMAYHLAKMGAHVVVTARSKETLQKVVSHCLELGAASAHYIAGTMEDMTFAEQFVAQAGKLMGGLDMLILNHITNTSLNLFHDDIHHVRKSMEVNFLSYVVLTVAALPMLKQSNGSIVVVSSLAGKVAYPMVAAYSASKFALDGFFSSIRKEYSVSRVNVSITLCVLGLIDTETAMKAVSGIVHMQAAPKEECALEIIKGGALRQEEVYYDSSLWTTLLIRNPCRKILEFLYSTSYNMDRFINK

Compound `O=C(C1CC1)N1CCC(Oc2ccc(C(=O)N3CC4CCCC3C4)cc2)CC1` (stereo not shown) [Example 4b, (6-Aza-bicyclo[3.2.1]oct-6-yl)-[4-(1-cyclopropane-carbonyl-piperidin-4-yloxy)-phenyl]-methanone] gave a negative logarithm of the IC50 (pIC50) of 5.64.

The compound `CC(C)(C)OC(=O)N1C[C@@H]2CC1CN2c1ccc(C(=O)N2CC3CCC(CC3)C2)cc1` (stereo in doubt) [Example 1h, (1S,4S)-5-[4-(3-Aza-bicyclo[3.2.2]nonane-3-carbonyl)-phenyl]-2,5-diaza-bicyclo[2.2.1]heptane-2-carboxylic acid tert-butyl ester] had a pIC50 of 6.41.

For the compound `CN(C(=O)c1ccc(OC2CCC(NC(=O)C3CC3)CC2)cc1)C1C2CC3CC1CC(O)(C3)C2` (stereo not shown) [Example 8c, 4-[4-(Cyclopropanecarbonyl-amino)-cyclohexyloxy]-N-(5-hydroxy-adamantan-2-yl)-N-methyl-benzamide], the pIC50 was 5.78.

On to `Cn1cnc(S(=O)(=O)N2CCC(COc3ccc(C(=O)N4CCCC5CCCCC54)cc3)CC2)c1` (stereo not shown) [Example 2f, {4-[1-(1-Methyl-1H-imidazole-4-sulfonyl)-piperidin-4-yl-methoxy]-phenyl}-(octahydro-quinolin-1-yl)-methanone], for which the pIC50 was 6.87.

In turn, `CC1(C)CC2CC(C)(CN2C(=O)c2ccc(OC3CCC(C(=O)O)CC3)cc2)C1` (stereo not shown) [Example A, 4-[4-(1,3,3-Trimethyl-6-aza-bicyclo[3.2.1]octane-6-carbonyl)-phenoxy]cyclohexanecarboxylic acid] gave a pIC50 of 6.44.

With `CC1(C)CC2CC(C)(CN2C(=O)c2ccc(OC3CCC(C(=O)O)C3)cc2)C1` (stereo not shown) [Example 8a, 3-[4-(1,3,3-Trimethyl-6-aza-bicyclo[3.2.1]octane-6-carbonyl)-phenoxy]-cyclopentane carboxylic acid], the pIC50 was 6.22.

Take `O=C(NC1C2CC3CC(C2)CC1C3)c1ccc(OC2CCN(C(=O)C3CC3)CC2)cc1` (stereo not shown) [Example 1b, 4-(1-Cyclopropanecarbonyl-piperidin-4-yloxy)-N-ada-mantan-2-yl-benzamide]: the pIC50 is 6.69.

In turn, `CCS(=O)(=O)N1CCC(COc2ccc(C(=O)N3CCCC4CCCCC43)cc2)CC1` (stereo not shown) [Example 3f, [4-(1-Ethanesulfonyl-piperidin-4-yl-methoxy)-phenyl]-(octahydro-quinolin-1-yl)-methanone] showed a pIC50 of 6.57.

`CN(C)C(=O)C1CCC(Oc2ccc(C(=O)N3CC4(C)CC3CC(C)(C)C4)cc2)CC1` (stereo not shown) [Example 12a, 4-[4-(1,1,3,3-Trimethyl-6-aza-bicyclo[3.2.1]octane-6-carbonyl)-phenoxy]-cyclo-hexane carboxylic acid di-methylamide] had a pIC50 of 6.95.

Take `O=C(c1ccc(O[C@H]2CC[C@@H](NS(=O)(=O)c3ccccn3)CC2)cc1)N1CCCC2CCCCC21` (stereo partly drawn) [Example 4c, Cis-Pyridine-2-sulfonic acid {4-[4-(octahydro-quinoline-1-carbonyl)-phenoxy]-cyclo-hexyl}-amide]: the pIC50 was 7.29.

For the compound `O=C(c1ccc(OC2CCN(C(=O)C3CC3)CC2)cc1)N1CC2CCC(CC2)C1` [Example B, (3-Aza-bicyclo[3.2.2]non-3-yl)-[4-(1-cyclopropane-carbonyl-piperidin-4-yloxy)-phenyl]-methanone], the pIC50 was 5.87.

`CC1(C)CC2CC(C)(CN2C(=O)c2ccc(O[C@H]3CC[C@H](C(=O)O)CC3)cc2)C1` (stereo partly drawn) [Example 6a, Trans-4-{4-(1,3,3-trimethyl-6-aza-bicyclo [3.2.1]oct-ane6-carbonyl)-phenoxy]-cyclo-hexanecarboxylic acid]: the negative logarithm of the IC50 (pIC50) is 5.92.

Regarding `CN(C(=O)c1ccc(OCC2CCN(S(=O)(=O)c3ccccn3)CC2)cc1)C1C2CC3CC1CC(O)(C3)C2` (stereo not shown) [Example 4f, N-(5-Hydroxy-adamantan-2-yl)-N-methyl-4-[1-(pyridine-2-sulfonyl)-piperidin-4-yl-methoxy]-benzamide], the pIC50 is 5.87.

`Cc1c[nH]c(SCC2CCC(Oc3ccc(C(=O)NC4C5CC6CC(C5)CC4C6)cc3)CC2)n1` (stereo not shown) [Example 1e, N-Adamantan-2-yl-4-[4-(4-methyl-1H-imidazol-2-yl-sulfanylmethyl)-cyclo-hexyloxy]-benzamide] gave a negative-log IC50 (pIC50) of 6.72.

`O=C(c1ccc(OC2CCN(C(=O)c3ccc(Cl)nc3)C2)cc1)N1CC2CCC(CC2)C1` (stereo not shown) [Example G, {3-[4-(3-Aza-bicyclo[3.2.2]nonane-3-carbonyl)-phenoxy]-pyrrolidin-1-yl}-(6-chloro-pyridin-3-yl)-methanone]: the pIC50 was 5.93.

With `O=C(NC1C2CC3CC(C2)CC1C3)c1ccc(OC2CCC(COn3cccn3)CC2)cc1` (stereo not shown) [Example 2e, 4-[4-(Pyrazol-1-yl-oxy-methyl)-cyclohexyloxy]-N-adamantan-2-yl-benzamide], the pIC50 was 6.72.

For `CC(C)CC(=O)N1CCC(Oc2ccc(C(=O)N3CC4CCC(CC4)C3)cc2)CC1` [Example 3b, 1-{4-[4-(3-Aza-bicyclo-[3.2.2]nonane-3-carbonyl)-phenoxy]-piperidin-1-yl}-3-methyl-butan-1-one], the pIC50 is 5.85.

As to `CC1(C)CC2CC(C)(CN2C(=O)c2ccc(O[C@H]3CC[C@@H](C(=O)O)CC3)cc2)C1` (stereo partly drawn) [Example 5a, Cis-4-[4-(1,3,3-trimethyl-6-aza-bicyclo [3.2.1]octane-6-carbonyl)-phenoxy]-cyclo-hexanecarboxylic acid], the pIC50 is 6.23.

On to `O=C(O)c1ccc(S(=O)(=O)N2CCC(COc3ccc(C(=O)N4CCCC5CCCCC54)cc3)CC2)cc1` (stereo not shown) [Example 9f, 4-{4-[4-(Octahydro-quinoline-1-carbonyl)-phenoxymethyl]-piperidine-1-sulfonyl}-benzoic acid], for which the pIC50 was 6.79.

In turn, `Cc1ccc(S(=O)(=O)NC(=O)N2CCC(Oc3ccc(C(=O)N4CC5CCC(CC5)C4)cc3)C2)cc1` (stereo not shown) [Example 3g, N-{3-[4-(3-Aza-bicyclo-[3.2.2]nonane-3-carbonyl)-phenoxy]-pyrrolidine-1-carbonyl}-4-methyl-benzenesulfonamide] gave a pIC50 of 5.55.

Take `O=C(NC1C2CC3CC(C2)CC1C3)c1ccc(OC2CCC(NC(=O)C3CC3)CC2)cc1` (mixture of isomers) [Example 2c, cis/trans-4-[4-(Cyclopropanecarbonyl-amino)-cyclohexyl-oxy]-N-adamantan-2-yl-benzamide]: the pIC50 was 6.93.

For the compound `O=C(NC1C2CC3CC(C2)CC1C3)c1ccc(O[C@H]2CC[C@@H](NC(=O)C3CC3)CC2)cc1` (stereo partly drawn) [Example 5c, Cis-N-Adamantan-2-yl-4-[4-(cyclopropanecarbonyl-amino)-cyclohexyloxy]-benzamide], the pIC50 was 6.80.

For the compound `O=C(NC1C2CC3CC(C2)CC1C3)c1ccc(OC2CCC(COc3ccccn3)CC2)cc1` (stereo not shown) [Example E, 4-[4-(Pyridin-2-yl-oxy-methyl)-cyclohexyloxy]-N-adamantan-2-yl-benzamide], the negative logarithm of the IC50 (pIC50) was 6.53.

Take `O=C(NC1C2CC3CC(C2)CC1C3)c1ccc(OC2CCC(On3cccn3)CC2)cc1` (stereo not shown) [Example 2d, 4-[4-(Pyrazol-1-yloxy)-cyclohexyloxy]-N-adaman-tan-2-yl-benzamide]: the pIC50 is 6.74.

`O=C(O)C1CCC(Oc2ccc(C(=O)N3CC4CCC(CC4)C3)cc2)CC1` (stereo not shown) [Example 2a, 4-[4-(3-Aza-bicyclo[3.2.2]-nonane-3-carbonyl)-phen-oxy]-cyclohexane carbox-ylic acid] gave a pIC50 of 5.84.
